Test results as given in patent publication US5182295A, “Insecticidal benzofuran derivatives” (Roussel Uclaf, priority 1990, dated 1993).
Converted amounts (≈) assume the structure as drawn. Read-outs that look alike come from different tables or passages of the source.

Experiments:
Type in all cases: in vivo
[1] = system: Spodoptera Littoralis (L3 stage larvae); experiment: whole plant or invertebrate; settings: 168 h, read-out: LC50, Spodoptera
Method: L3 stage SPODOPTERA LITTORALIS larvae were used and the operation was carried out at 22° C. at relative humidity conditions of 50%. Petri dishes were used containing a damp circular piece of filter paper and in each dish, two bean plant leaves were placed and treated with hydroacetonic solution (50-50) containing the product under test. The dead larvae were counted at the end of 7 days and the concentration LC50 were expressed in ppm.

Plasmopara viticola = experiment: Fungicide activity: tests on Plasmopara viticola (vine plants, leaf spray); settings: 100 ppm of active material, relative to non-treated control; for % of effectiveness on plasmopara viticola, Grenache vine: ten days after contamination
Method: Young vine plants from cuttings (Grenache N variety, clone 70) were cultivated in a greenhouse (daytime temperature: 30° C., night-time temperature: 25° C.) on an earth/compost/sand mixture, (1/3-1/3-1/3). Two days before the test, the plants were moved into a culture chamber with the same temperature conditions and humidity 60% in the day, 80% at night. The product was dissolved in "matrix A" at a concentration of 100 ppm just before use. The treatment took place by spraying the solution on the leaves until saturation Contamination was carried out with a suspension of zoospores of Plasmopara viticola taken immediately before the test using 50,000 zoospores per ml. Drops of suspension (20 micro-liters) were deposited on the abaxial surface of the leaves. The plants were then kept for 24 hours in an atmosphere saturated with water-vapour. Then, the atmosphere was returned to the humidity of the culture chamber (60% in the day, 80% at night). The reading was taken ten days after contamination by measuring the development of clusters of sporangiophores on the abaxial surface of the leaves. The effectiveness of the product was calculated relative to a non-treated control. The same type of test was carried out on a Chardonnay vine.
The results obtained in % of effectiveness on plasmopara viticola at 100 ppm of active material were as follows: […]

Tetranychus Urticae = experiment: Acaricide study on Tetranychus Urticae; settings: 72 h, read-out: LC50, Tetranychus
Method: Bean plants were used comprising 2 leaves infested with 30 females of Tetranychus Urticae per leaf and put under an aerated hood under a lighted ceiling which was constantly on. The plants were treated with a Fisher gun with 4 ml of toxic solution per plant of a mixture with an equal volume of water and acetone. After leaving to dry for half an hour the infestation was proceeded with and mortality checks were carried out at the end of 3 days. The LC50 dose was determined and the results are set out in the table below, taking account of the following values: […]

Musca Domestica (Fly) = experiment: Insecticide activity: lethal effect on Musca Domestica (topical application); settings: 6-day-old female flies, topical application of acetone solution on dorsal thorax, 22° C.
Method: 6-day-old female flies weighing 18 to 20 mg were used and the operation was carried out at 22° C. at relative humidity conditions of 50%. The products were administered by topical application of an acetone solution of 1 g/l on the dorsal thorax of the insects. The LC50 dose was determined and was expressed in ppm.

Aphis Cracivora = experiment: Insecticide activity: activity on Aphis Cracivora; settings: female apter on sprayed broad bean leaves, 24 hours
Method: 2 ml of water acetone solution (50/50) was sprayed on broad bean leaves (vicia fabae) until the leaves were running with solution. After drying, 15 female apter of Aphis cracivora were deposited on the leaves and the mixture was kept on the damp filter paper inside a Petri dish. 24 hours after the start of contact, the number of dead insects was determined and the LC50 dose expressed in ppm were determined.

[2] = L3 larvae, contact and ingestion, treated bean leaves, 7 days, 22° C.
[3] = females on treated bean plants, 3 days

Row | Structure (SMILES) | LC50 [1, 2] [µg/mL] | % of effectiveness on plasmopara viticola, Grenache vine (Plasmopara viticola) [%] | LC50 (Tetranychus Urticae; [3]) [µg/mL] | LC50 (Musca Domestica (Fly)) [µg/mL] | also measured
1 | CO/C=C(\C(=O)OC)c1cccc2cc(-c3ccc(OC)cc3)oc12 [1 (Z)] | 250 to 1000 (≈ 739 to 2960 µM) | 100 | < 250 | – | –
2 | CO/C=C(/C(=O)OC)c1cccc2cc(-c3cccc(OC)c3)oc12 [2 (E)] | – | 100 | – | – | % of effectiveness on plasmopara viticola, Chardonnay vine (Plasmopara viticola): 100%
3 | CO/C=C(/C(=O)OC)c1cccc2cc(-c3ccccc3)oc12 [3 (E)] | 250 to 1000 (≈ 811 to 3240 µM) | – | – | – | –
4 | CO/C=C(\C(=O)OC)c1cccc2cc(-c3ccccc3)oc12 [3 (Z)] | 250 to 1000 (≈ 811 to 3240 µM) | – | – | – | –
5 | CO/C=C(/C(=O)OC)c1cccc2cc(-c3ccccc3Cl)oc12 [10 (E)] | – | 100 | – | – | % of effectiveness on plasmopara viticola, Chardonnay vine (Plasmopara viticola): 90%
6 | CO/C=C(/C(=O)OC)c1cccc2cc(-c3ccc(Cl)cc3)oc12 [12 (E)] | – | 100 | < 250 | < 250 | % of effectiveness on plasmopara viticola, Chardonnay vine (Plasmopara viticola): 100%
7 | CO/C=C(/C(=O)OC)c1cccc2cc(-c3ccc(Br)c(C(F)(F)F)c3)oc12 [14 (E), Methyl α[(E)methoxymethylene1-2-4-bromo-3-(trifluoromethyl)-phenyl]benzofuran acetate] | 250 to 1000 | – | < 250 | < 250 | –
8 | CO/C=C(/C(=O)OC)c1cccc2cc(-c3ccc(Cl)c(OC)c3)oc12 [15 (E)] | 250 to 1000 (≈ 671 to 2680 µM) | – | 250 to 1000 (≈ 671 to 2680 µM) | < 250 | LC50 (Aphis Cracivora): < 250 µg/mL
9 | CO/C=C(/C(=O)OC)c1cccc2cc(-c3csc(C(C)C)n3)oc12 [16 (E), Methyl α-(E)methoxymethylene1-7-[2-[4-(2-isopropylthiazolyl)-benzofuranyl]-acetate] | – | – | < 250 | – | –
10 | CO/C=C(/C(=O)OC)c1cccc2cc(-c3ccc4c(c3)OCO4)oc12 [17 (E), Methyl α[(E)-methoxymethylene1-2-(3,4-methylenedioxy)-phenyl-7-benzofuran acetate] | < 250 | – | – | < 250 | –
11 | CCCCc1cc2cccc(/C(=C\OC)C(=O)OC)c2o1 [18 (E), Methyl α[(E)-methoxymethylene1-2-butyl-7-benzofuran acetate] | – | – | < 250 | – | LC50 (Aphis Cracivora): < 250 µg/mL
12 | CO/C=C(/C(=O)OC)c1cccc2cc(-c3csc(-c4ccc(OC(F)(F)F)cc4)n3)oc12 [19 (E), Methyl α[(E)-methoxymethylene]-2-[2-[4-(trifluoromethyxy)-pehny]-4-thiazolyl]-7-benzofuran acette] | < 250 | – | – | – | –
13 | CO/C=C(/C(=O)OC)c1cccc2cc(-c3cccc(Oc4ccccc4)c3)oc12 [24 (E), Methyl α-[(E)-methoxymethylene]-2-(3-phenoxyphenyl) -7-benzofuran acetate] | – | – | – | < 250 | –
14 | CO/C=C(/C(=O)OC)c1cccc2cc(-c3ccc(Oc4ccccc4)cc3)oc12 [25 (E), Methyl α-[(E)-methoxymethylene]-2-(4-phenoxyphenyl) -7-benzofuran acetate] | – | – | – | < 250 | –
15 | CO/C=C(/C(=O)OC)c1cccc2cc(-c3ccc(OC)cc3)oc12 [Example 1 (E), Methyl α-[(E)-methoxymethylene]-2-(4-methoxy-phenyl)-7-benzofuranacetate] | – | 90 | – | – | LC50 [1]: 250 to 1000 µg/mL (≈ 739 to 2960 µM); LC50 (Tetranychus Urticae): < 250 µg/mL
16 | CO/C=C(/C(=O)OC)c1cccc2cc(-c3cccc(Cl)c3)oc12 [Example 11 (E)] | 250 to 1000 (≈ 729 to 2920 µM) | 100 | – | – | % of effectiveness on plasmopara viticola, Chardonnay vine (Plasmopara viticola): 100%
